This note sets out measurements from US9303012B2, “Pyridine-2-amides useful as CB2 agonists” (Hoffmann-La Roche Inc., priority 2012, dated 2016).

Molecules are shown by their SMILES. Where only a bound is given, the exact number is not on record here.

The target of one test is human CB1 receptors (Homo sapiens (Human), UniProt P21554). As to the kind of experiment: functional cAMP assay, CHO cells expressing human CB1 receptors. The test is classed as cell-based. Here is the method: (§1) CHO cells expressing human CB1 or CB2 receptors are seeded 17-24 hours prior to the experiment 50.000 cells per well in a black 96 well plate with flat clear bottom (Corning Costar #3904) in DMEM (Invitrogen No. 31331), 1×HT supplement, with 10% fetal calf serum and incubated at 5% CO2 and 37° C. in a humidified incubator. The growth medium was exchanged with Krebs Ringer Bicarbonate buffer with 1 mM IBMX and incubated at 30° C. for 30 min. Compounds were added to a final assay volume of 100 μl and incubated for 30 min at 30° C. Using the cAMP-Nano-TRF detection kit the assay (Roche Diagnostics) was stopped by the addition of 50 μl lysis reagent (Tris, NaCl, 1.5% Triton X100, 2.5% NP40, 10% NaN3) and 50 μl detection solutions (20 μM mAb Alexa700-cAMP 1:1, and 48 μM Ruthenium-2-AHA-cAMP) and shaken for 2 h at room temperature. The time-resolved energy transfer is measured by a TRF reader (Evotec Technologies GmbH), equipped with a ND:YAG laser as excitation source. The plate is measured twice with the excitation at 355 nm and at the emission with a delay of 100 ns and a gate of 100 ns, total exposure time 10 s at 730 (bandwidth 30 nm) or 645 nm (bandwidth 75 nm), respectively. The FRET signal is calculated as follows: FRET=T730-Alexa730-P(T645-B645) with P=Ru730-B730/Ru645-B645, where T730 is the test well measured at 730 nM, T645 is the test well measured at 645 nm, B730 and B645 are the buffer controls at 730 nm and 645 nm, respectively. cAMP content is determined from the function of a standard curve spanning from 10 μM to 0.13 nM cAMP.
(§2) EC50 values were determined using Activity Base analysis (ID Business Solution, Limited). The EC50 values for a wide range of cannabinoid agonists generated from this assay were in agreement with the values published in the scientific literature.

The next test has as its target human CB2 receptors (Homo sapiens (Human), UniProt P34972). The test is described as follows: functional cAMP assay, CHO cells expressing human CB2 receptors. The test is classed as cell-based. Here is the method: as §1, §2
In general terms: Changes in cAMP serve as a functional read-out for many G protein-coupled receptors.

Chain of human CB1 receptors (P21554 whole entry): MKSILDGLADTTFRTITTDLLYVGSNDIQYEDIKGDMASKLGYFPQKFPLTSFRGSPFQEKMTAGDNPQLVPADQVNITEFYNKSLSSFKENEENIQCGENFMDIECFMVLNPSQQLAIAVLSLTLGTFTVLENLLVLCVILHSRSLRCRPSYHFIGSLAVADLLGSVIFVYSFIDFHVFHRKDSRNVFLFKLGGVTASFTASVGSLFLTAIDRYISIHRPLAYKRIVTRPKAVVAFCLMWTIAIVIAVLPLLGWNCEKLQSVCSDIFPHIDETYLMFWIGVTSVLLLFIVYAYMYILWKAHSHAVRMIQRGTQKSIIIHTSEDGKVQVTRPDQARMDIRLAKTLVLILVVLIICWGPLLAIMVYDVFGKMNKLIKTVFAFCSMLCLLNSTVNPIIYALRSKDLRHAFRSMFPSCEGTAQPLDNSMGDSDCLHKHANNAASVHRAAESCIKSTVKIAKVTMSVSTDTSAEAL
Chain of human CB2 receptors (P34972 whole entry): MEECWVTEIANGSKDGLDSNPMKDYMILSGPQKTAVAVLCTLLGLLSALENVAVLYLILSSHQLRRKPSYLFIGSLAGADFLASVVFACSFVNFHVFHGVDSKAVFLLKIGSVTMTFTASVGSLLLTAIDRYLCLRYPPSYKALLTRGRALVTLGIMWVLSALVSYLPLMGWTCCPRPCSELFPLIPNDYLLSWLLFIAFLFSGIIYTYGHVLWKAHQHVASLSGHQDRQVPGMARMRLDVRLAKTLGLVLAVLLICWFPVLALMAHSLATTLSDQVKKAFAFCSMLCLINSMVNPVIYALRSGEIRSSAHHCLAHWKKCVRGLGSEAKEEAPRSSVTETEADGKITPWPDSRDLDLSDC

Usually EC50 stands for the concentration that produces a half-maximal response. The low end stands for a more potent agent, the high end for a less potent agent. For `CNC(=O)CN(C(=O)c1ccc(N2CC(F)(F)C2)c(OCC2CC2)n1)C(C)(C)C` [Example 26, 6-Cyclopropylmethoxy-5-(3,3-difluoro-azetidin-1-yl)-pyridine-2-carboxylic acid tert-butyl-methylcarbamoylmethyl-amide], the EC50 on human CB1 receptors was over 10 µM; at human CB2 receptors it was 306 nM.
For `CN(C)C(=O)CN(C(=O)c1ccc(N2CC(F)(F)C2)c(OCC2CC2)n1)C(C)(C)C` [Example 27, 6-Cyclopropylmethoxy-5-(3,3-difluoro-azetidin-1-yl)-pyridine-2-carboxylic acid tert-butyl-dimethylcarbamoylmethyl-amide], in that order: over 10 µM and 774 nM.
As to `CC1(C)C(=O)NCCN1C(=O)c1ccc(N2CC(F)(F)C2)c(OCC2CC2)n1` [Example 28, 4-[6-Cyclopropylmethoxy-5-(3,3-difluoro-azetidin-1-yl)-pyridine-2-carbonyl]-3,3-dimethyl-piperazin-2-one], the EC50 is over 10 µM at human CB1 receptors and 414 nM at human CB2 receptors.
On to `CCC1(CC)C(=O)NCCN1C(=O)c1ccc(N2CC(F)(F)C2)c(OCC2CC2)n1` [Example 29, 4-[6-Cyclopropylmethoxy-5-(3,3-difluoro-azetidin-1-yl)-pyridine-2-carbonyl]-3,3-diethyl-piperazin-2-one], for which the EC50 was over 10 µM at human CB1 receptors and 414 nM at human CB2 receptors.
For `CC(C)CS(=O)(=O)c1nc(C(=O)N2CCCC2(C)C)ccc1C1CC1` [Example 30, [5-Cyclopropyl-6-(2-methyl-propane-1-sulfonyl)-pyridin-2-yl]-(2,2-dimethyl-pyrrolidin-1-yl)-methanone], in that order: over 10 µM and 34.5 nM.
In the case of `CC(C)CS(=O)(=O)c1nc(C(=O)N2COCC2(C)C)ccc1C1CC1` [Example 31, [5-Cyclopropyl-6-(2-methyl-propane-1-sulfonyl)-pyridin-2-yl]-(4,4-dimethyl-oxazolidin-3-yl)-methanone], the values for the EC50 on human CB1 receptors and on human CB2 receptors were over 10 µM and 82.1 nM, respectively.
As to `Cc1nc([C@H](CC2CC2)N(C)C(=O)c2ccc(N3CC(F)(F)C3)c(OCC3CC3)n2)no1` [Example 32, 6-Cyclopropylmethoxy-5-(3,3-difluoro-azetidin-1-yl)-pyridine-2-carboxylic acid [(S)-2-cyclopropyl-1-(5-methyl-[1,2,4]oxadiazol-3-yl)-ethyl]-methyl-amide], the EC50 at human CB1 receptors is over 10 µM; at human CB2 receptors, 256 nM.
The matching figures for `Cc1nc(C(C2CC2)N(C)C(=O)c2ccc(C3CC3)c(OCC3CCOCC3)n2)no1` (centres unmarked) [Example 33, 5-Cyclopropyl-6-(tetrahydro-pyran-4-ylmethoxy)-pyridine-2-carboxylic acid [cyclopropyl-(5-methyl-[1,2,4]oxadiazol-3-yl)-methyl]-methyl-amide]: over 10 µM and 55.4 nM.
For `CC(C)C[C@H](c1cccnn1)N(C)C(=O)c1ccc(N2CC(F)(F)C2)c(OCC2CC2)n1` [Example 34, (+)-6-Cyclopropylmethoxy-5-(3,3-difluoro-azetidin-1-yl)-pyridine-2-carboxylic acid methyl-(3-methyl-1-pyridazin-3-yl-butyl)-amide], in that order: over 10 µM and 91.1 nM.
On to `CC(C)(C)N(CC(N)=O)C(=O)c1ccc(N2CC(F)(F)C2)c(OCC2CC2)n1` [Example 35, 6-Cyclopropylmethoxy-5-(3,3-difluoro-azetidin-1-yl)-pyridine-2-carboxylic acid tert-butyl-carbamoylmethyl-amide], for which the half-maximal effective concentration (EC50) was over 10 µM at human CB1 receptors and 183 nM at human CB2 receptors.
The matching figures for `Cc1nnc(CN(C(=O)c2ccc(N3CC(F)(F)C3)c(OCC3CC3)n2)C(C)(C)C)o1` [Example 36, 6-Cyclopropylmethoxy-5-(3,3-difluoro-azetidin-1-yl)-pyridine-2-carboxylic acid tert-butyl-(5-methyl-[1,3,4]oxadiazol-2-ylmethyl)-amide]: over 10 µM and 226 nM.
For `CC1(O)CCN(C(=O)c2ccc(N3CC(F)(F)C3)c(OCC3CC3)n2)C1` (centres unmarked) [Example 37, [6-Cyclopropylmethoxy-5-(3,3-difluoro-azetidin-1-yl)-pyridin-2-yl]-(3-hydroxy-3-methyl-pyrrolidin-1-yl)-methanone], in that order: over 10 µM and 364 nM.
For `O=C(c1ccc(N2CC(F)(F)C2)c(OCC2CC2)n1)N1CCCC12COC2` [Example 38, [6-Cyclopropylmethoxy-5-(3,3-difluoro-azetidin-1-yl)-pyridin-2-yl]-(2-oxa-5-aza-spiro[3.4]oct-5-yl)-methanone], in that order: over 10 µM and 212 nM.
With `CCN(CCOC)C(=O)c1ccc(N2CC(F)(F)C2)c(OCC2CC2)n1` [Example 39, 6-Cyclopropylmethoxy-5-(3,3-difluoro-azetidin-1-yl)-pyridine-2-carboxylic acid ethyl-(2-methoxy-ethyl)-amide], the EC50 at human CB1 receptors was over 10 µM; on human CB2 receptors it was 142 nM.
Take `Cn1nnnc1CN(C(=O)c1ccc(N2CC(F)(F)C2)c(OCC2CC2)n1)C(C)(C)C` [Example 40, 6-Cyclopropylmethoxy-5-(3,3-difluoro-azetidin-1-yl)-pyridine-2-carboxylic acid tert-butyl-(1-methyl-1H-tetrazol-5-ylmethyl)-amide]: the EC50 on human CB1 receptors is over 10 µM; on human CB2 receptors, 81.8 nM.
The matching figures for `CC(=O)NC1CCN(C(=O)c2ccc(N3CC(F)(F)C3)c(OCC3CC3)n2)C1` (centres unmarked) [Example 41, N-{1-[6-Cyclopropylmethoxy-5-(3,3-difluoro-azetidin-1-yl)-pyridine-2-carbonyl]-pyrrolidin-3-yl}-acetamide]: over 10 µM and 966 nM.
The matching figures for `CC1(C)CCN(C(=O)c2ccc(C3CC3)c(Cc3ccc(F)cc3)n2)CC1` [Example 42, [5-Cyclopropyl-6-(4-fluoro-benzyl)-pyridin-2-yl]-(4,4-dimethyl-piperidin-1-yl)-methanone]: over 10 µM and 9 nM.
Take `CC1(C)CCN(C(=O)c2ccc(C3CC3)c(OCC3CCCO3)n2)CC1` (centres unmarked) [Example 43, [5-Cyclopropyl-6-(tetrahydro-furan-2-ylmethoxy)-pyridin-2-yl]-(4,4-dimethyl-piperidin-1-yl)-methanone]: the results for the EC50 at human CB1 receptors and at human CB2 receptors were over 10 µM and 34.9 nM, respectively.
As for `CC1(C)COCN1C(=O)c1ccc(C2CC2)c(Cc2ccc(F)cc2)n1` [Example 44, [5-Cyclopropyl-6-(4-fluoro-benzyl)-pyridin-2-yl]-(4,4-dimethyl-oxazolidin-3-yl)-methanone], the EC50 at human CB1 receptors amounted to 0.408 µM; at human CB2 receptors it was 3.1 nM.
`CC1(C)C[C@@H]2C[C@@](C)(CN2C(=O)c2ccc(N3CC(F)(F)C3)c(OCC3CC3)n2)C1` [Example 45, [6-Cyclopropylmethoxy-5-(3,3-difluoro-azetidin-1-yl)-pyridin-2-yl]-((1S,5R)-1,3,3-trimethyl-6-aza-bicyclo[3.2.1]oct-6-yl)-methanone]: the EC50 on human CB1 receptors is over 10 µM; at human CB2 receptors, 6.8 nM.
In the case of `COC[C@H]1CCCN1C(=O)c1ccc(N2CC(F)(F)C2)c(OCC2CC2)n1` [Example 46, [6-Cyclopropylmethoxy-5-(3,3-difluoro-azetidin-1-yl)-pyridin-2-yl]-((R)-2-methoxymethyl-pyrrolidin-1-yl)-methanone], the EC50 is over 10 µM at human CB1 receptors and 360 nM on human CB2 receptors.
Consider `CC1(C)CCCN1C(=O)c1ccc(OCC2CC2)c(Cl)n1` [Example 47, (6-Chloro-5-cyclopropylmethoxy-pyridin-2-yl)-(2,2-dimethyl-pyrrolidin-1-yl)-methanone], for which the figures for the EC50 at human CB1 receptors and on human CB2 receptors were over 10 µM and 113 nM, respectively.
For `CC1(C)COCN1C(=O)c1ccc(OC(F)(F)F)c(OCC2CC2)n1` [Example 48, (6-Cyclopropylmethoxy-5-trifluoromethoxy-pyridin-2-yl)-(4,4-dimethyl-oxazolidin-3-yl)-methanone], the EC50 on human CB1 receptors was over 10 µM; at human CB2 receptors, 108 nM.
As for `CC1(C)COCN1C(=O)c1ccc(OCC2CC2)c(Cl)n1` [Example 49, (6-Chloro-5-cyclopropylmethoxy-pyridin-2-yl)-(4,4-dimethyl-oxazolidin-3-yl)-methanone], the values for the half-maximal effective concentration (EC50) at human CB1 receptors and at human CB2 receptors were over 10 µM and 139 nM, respectively.
Consider `CC(=O)N1CCC(N(C(=O)c2ccc(N3CC(F)(F)C3)c(OCC3CC3)n2)C2CC2)CC1` [Example 50, 6-Cyclopropylmethoxy-5-(3,3-difluoro-azetidin-1-yl)-pyridine-2-carboxylic acid (1-acetyl-piperidin-4-yl)-cyclopropyl-amide], for which the values for the EC50 at human CB1 receptors and at human CB2 receptors were over 10 µM and 237 nM, respectively.
